In patent US9067974B2, “Polymyxin derivatives and uses thereof” (priority 2006, dated 2015):
Values joined by “and” are separate entries in the source; they are usually repeats but may differ in a detail not shown here. Equal entries are not always repeated.

Columns and labels:
K. oxytoca ATCC13182 = assay: Well diffusion growth inhibition on LB agar plates (direct antibacterial activity); format: cell-based, Klebsiella oxytoca
Experimental: (§1) From an overnight-grown culture of IH3080 on LB agar, a suspension of approx. 10^8 cells/ml was prepared in 0.9% NaCl. Aliquots of this suspension were then pipetted on the agar plates and the plates were gently shaken to spread the suspension evenly on the entire surface of the plate. Thereafter, the unabsorbed part of the suspension was removed by using a Pasteur pipette. After the surface had dried, small wells (diameter, 2 mm) were drilled on the plates (five wells per plate) by using a sterile sharp-edged narrow metal tube, single-use pipette tip, and vacuum suction. Samples (4 μl and 10 μl) of the peptide solution in 0.9% NaCl (at concentrations of 1 μg/ml and 0.1 μg/ml) were then pipetted to the wells and the sample fluids were allowed to absorb. Controls included 0.9% NaCl solution without the compound to be tested. The plates were then incubated for 18 h at 37° C. whereafter the diameters of growth inhibition zones around each well were measured; the diameter of the well itself was not reduced. Finally, the diameters were converted to surface areas of growth inhibition (in square mm).
(§2) The susceptibility of eleven Gram-negative bacterial strains (nine different species) to NAB734 and polymyxin B was compared by using the susceptibility determination method described in Example 2. The strains included those belonging to the species of Serratia marcescens and Proteus mirabilis, both species generally known to be resistant to polymyxin. Furthermore, the susceptibility determination was also performed by using the Gram-positive bacterium, Staphylococcus aureus, also generally known to be polymyxin-resistant. Ten of the strains originated from ATCC (American Type Culture Collection, Manassas, Va., U.S.A.), and one from CCUG (Culture Collection of University of Gothenburg, Sweden). The source of E. coli IH3080 has been described in Example 2. Polymyxin B sulfate was from Sigma-Aldrich (St. Louis, Mo., USA).

K. pneumoniae ATCC13883 = assay: as above; format: cell-based, Klebsiella pneumoniae
Experimental: as §1, §2

S. aureus ATCC 25923 = assay: as above; format: cell-based, Staphylococcus aureus
Experimental: as §1, with “Samples (4 μl and 10 μl) of the peptide solution in 0.9% NaCl (at concentrations of 1 μg/ml and 0.1 μg/ml) were then pipetted to the wells and the sample fluids were allowed to absorb.” left out
as §2

A. baumannii ATCC 19606 = assay: Sensitization to rifampin: well diffusion growth inhibition on LB plates containing rifampin; format: cell-based, Acinetobacter baumannii; details: 4 μg of compound
P. mirabilis ATCC29906 = assay: Well diffusion growth inhibition on LB agar plates (direct antibacterial activity); format: cell-based, Proteus mirabilis
Experimental: as §1, §2

S. marcescens ATCC8100 = assay: as above; format: cell-based, Serratia marcescens
Experimental: as §1, §2

E. coli IH3080 (K1:O18) = assay: as above; format: cell-based, Escherichia coli
Procedure, shortened: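 Growth inhibition of encapsulated E. coli IH3080 (K1:O18) was measured by well diffusion on LB agar plates. A suspension of about 10^8 cells/ml in 0.9% NaCl, made from an overnight LB agar culture, was spread over the plates and the excess removed. Once dry, five 2 mm wells were drilled per plate and test solutions added, with 0.9% NaCl as control. After 18 h at 37° C, inhibition zone diameters were measured and converted to surface areas in square mm.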

C. freundii ATCC8090 = assay: as above; format: cell-based, Citrobacter freundii
Experimental: as §1, §2

[1] = system: Ps. aeruginosa ATCC 27853; assay: Sensitization to rifampin: well diffusion growth inhibition on LB plates containing rifampin; format: cell-based, Pseudomonas aeruginosa; details: 4 μg of compound
[2] = system: Pseudomonas aeruginosa ATCC 27853; assay: Well diffusion growth inhibition on LB agar plates (direct antibacterial activity); format: cell-based; details: Ps. aeruginosa ATCC 27853
Experimental: as §1
(§3) Direct antibacterial activity of twelve NAB compounds against Acinetobacter baumannii ATCC 19606 and Pseudomonas aeruginosa ATCC 27853 was tested by using the susceptibility determination method described in Example 2. Five compounds (NAB7062, NAB734, NAB737, NAB739, and NAB740) had notable activity against A. baumannii. […] The antibacterial activity of NAB739 and NAB740 were as strong as or even stronger than that of polymyxin B.

[3] = system: Acinetobacter baumannii ATCC 19606; assay: as above; format: cell-based; details: A. baumannii ATCC 19606
Experimental: as §1, §3

E. cloacae ATCC23355 = assay: as above; format: cell-based, Enterobacter cloacae
Experimental: as §1, §2

K. pneumoniae CCUG45421 = assay: as above; format: cell-based, Klebsiella pneumoniae
Experimental: as §1, with “Samples (4 μl and 10 μl) of the peptide solution in 0.9% NaCl (at concentrations of 1 μg/ml and 0.1 μg/ml) were then pipetted to the wells and the sample fluids were allowed to absorb.” left out
as §2

E. coli IH3080 = assay: Sensitization to rifampin: well diffusion growth inhibition on LB plates containing rifampin; format: cell-based, Escherichia coli; details: 4 μg of compound
E. coli ATCC25922 = assay: Well diffusion growth inhibition on LB agar plates (direct antibacterial activity); format: cell-based, Escherichia coli
Experimental: as §1, with “Samples (4 μl and 10 μl) of the peptide solution in 0.9% NaCl (at concentrations of 1 μg/ml and 0.1 μg/ml) were then pipetted to the wells and the sample fluids were allowed to absorb.” left out
as §2

Substance	Antibacterial activity (growth inhibition area around a well) (K. oxytoca ATCC13182; 4 μg per well) [square millimeters]	Antibacterial activity (growth inhibition area around a well) (K. oxytoca ATCC13182; 10 μg per well) [square millimeters]	Antibacterial activity (growth inhibition area around a well) (K. pneumoniae ATCC13883; 4 μg per well) [square millimeters]	Antibacterial activity (growth inhibition area around a well) (K. pneumoniae ATCC13883; 10 μg per well) [square millimeters]	Antibacterial activity (growth inhibition area around a well) (S. aureus ATCC 25923; 4 μg per well) [square millimeters]	Antibacterial activity (growth inhibition area around a well) (S. aureus ATCC 25923; 10 μg per well) [square millimeters]	Antibacterial activity in the presence of rifampin (growth inhibition area around a well) (A. baumannii ATCC 19606; rifampin 0 μg/ml) [square millimeters]	Antibacterial activity in the presence of rifampin (growth inhibition area around a well) (A. baumannii ATCC 19606; rifampin 0.1 μg/ml) [square millimeters]	Antibacterial activity in the presence of rifampin (growth inhibition area around a well) (A. baumannii ATCC 19606; rifampin 0.3 μg/ml) [square millimeters]	Antibacterial activity (growth inhibition area around a well) (P. mirabilis ATCC29906; 4 μg per well) [square millimeters]	Antibacterial activity (growth inhibition area around a well) (P. mirabilis ATCC29906; 10 μg per well) [square millimeters]	Antibacterial activity (growth inhibition area around a well) (S. marcescens ATCC8100; 4 μg per well) [square millimeters]	Antibacterial activity (growth inhibition area around a well) (S. marcescens ATCC8100; 10 μg per well) [square millimeters]	Antibacterial activity (growth inhibition area around a well) (E. coli IH3080 (K1:O18); 4 μg of compound per well) [square millimeters]	Antibacterial activity (growth inhibition area around a well) (E. coli IH3080 (K1:O18); 10 μg of compound per well)	Antibacterial activity (growth inhibition area around a well) (C. freundii ATCC8090; 4 μg per well) [square millimeters]	Antibacterial activity (growth inhibition area around a well) ([2]; 4 μg per well) [square millimeters]	Antibacterial activity (growth inhibition area around a well) ([2]; 10 μg per well) [square millimeters]	Antibacterial activity (growth inhibition area around a well) ([3]; 4 μg per well)	Antibacterial activity (growth inhibition area around a well) ([3]; 10 μg per well)	other results
OA-Thr-DSer-cy[Dab-Dab-DPhe-Thr-Dab-Dab-Thr-] [NAB 734]	95	143	64	113	0	0	38	201	283	0	0	0	0	113	177 square millimeters and 154 square millimeters	133	13	50	38 square millimeters and 57 square millimeters	95 square millimeters and 79 square millimeters	Antibacterial activity (growth inhibition area around a well) (C. freundii ATCC8090; 10 μg per well): 177 square millimeters; Antibacterial activity in the presence of rifampin (growth inhibition area around a well) ([1]; rifampin 0 μg/ml): 13 square millimeters; Antibacterial activity in the presence of rifampin (growth inhibition area around a well) ([1]; rifampin 0.1 μg/ml): 20 square millimeters; Antibacterial activity in the presence of rifampin (growth inhibition area around a well) ([1]; rifampin 0.3 μg/ml): 20 square millimeters; Antibacterial activity (growth inhibition area around a well) (E. cloacae ATCC23355; 4 μg per well): 133 square millimeters; Antibacterial activity (growth inhibition area around a well) (E. cloacae ATCC23355; 10 μg per well): 177 square millimeters; Antibacterial activity (growth inhibition area around a well) (K. pneumoniae CCUG45421; 4 μg per well): 64 square millimeters; Antibacterial activity (growth inhibition area around a well) (K. pneumoniae CCUG45421; 10 μg per well): 104 square millimeters; Antibacterial activity in the presence of rifampin (growth inhibition area around a well) (E. coli IH3080; rifampin 0 μg/ml): 113 square millimeters; Antibacterial activity in the presence of rifampin (growth inhibition area around a well) (E. coli IH3080; rifampin 0.1 μg/ml): 154 square millimeters; Antibacterial activity in the presence of rifampin (growth inhibition area around a well) (E. coli IH3080; rifampin 1.0 μg/ml): 201 square millimeters; Antibacterial activity (growth inhibition area around a well) (E. coli ATCC25922; 4 μg per well): 133 square millimeters; Antibacterial activity (growth inhibition area around a well) (E. coli ATCC25922; 10 μg per well): 177 square millimeters
Polymyxin B nonapeptide [reference compound]	–	–	–	–	–	–	0	133	154	–	–	–	–	0	0 square millimeters	–	113	177	0 square millimeters	0 square millimeters	Antibacterial activity in the presence of rifampin (growth inhibition area around a well) ([1]; rifampin 0 μg/ml): 113 square millimeters; Antibacterial activity in the presence of rifampin (growth inhibition area around a well) ([1]; rifampin 0.1 μg/ml): 113 square millimeters; Antibacterial activity in the presence of rifampin (growth inhibition area around a well) ([1]; rifampin 0.3 μg/ml): 154 square millimeters; Antibacterial activity in the presence of rifampin (growth inhibition area around a well) (E. coli IH3080; rifampin 0 μg/ml): 0 square millimeters; Antibacterial activity in the presence of rifampin (growth inhibition area around a well) (E. coli IH3080; rifampin 0.1 μg/ml): 20 square millimeters; Antibacterial activity in the presence of rifampin (growth inhibition area around a well) (E. coli IH3080; rifampin 1.0 μg/ml): 113 square millimeters
Polymyxin B sulfate [reference compound]	79	104	79	113	0	0	–	–	–	0	0	0	0	95	133 square millimeters	95	95	133	113 square millimeters	154 square millimeters	Antibacterial activity (growth inhibition area around a well) (C. freundii ATCC8090; 10 μg per well): 154 square millimeters; Antibacterial activity (growth inhibition area around a well) (E. cloacae ATCC23355; 4 μg per well): 95 square millimeters; Antibacterial activity (growth inhibition area around a well) (E. cloacae ATCC23355; 10 μg per well): 143 square millimeters; Antibacterial activity (growth inhibition area around a well) (K. pneumoniae CCUG45421; 4 μg per well): 95 square millimeters; Antibacterial activity (growth inhibition area around a well) (K. pneumoniae CCUG45421; 10 μg per well): 133 square millimeters; Antibacterial activity (growth inhibition area around a well) (E. coli ATCC25922; 4 μg per well): 95 square millimeters; Antibacterial activity (growth inhibition area around a well) (E. coli ATCC25922; 10 μg per well): 133 square millimeters
